Patent US20140370541A1, “CELL CULTURE LIQUID/GAS-PHASE CHAMBER DEVICES AND RELATED METHODS, AND EXEMPLARY USE FOR MEASURING ACCUMULATION OF GAS-PHASE NITRIC OXIDE IN DIFFERENTIATED CULTURES OF NORMAL AND CYSTIC FIBROSIS AIRWAY EPITHELIAL CELLS” (UNIVERSITY OF NORTH CAROLINA, priority 2012, published 2014)
“And” between values parts separate entries of the source, which are not always exact repeats. Identical values can stand only once. “Also recorded” adds a separate entry of the source.

Key:
[1] = tested on: control human bronchial epithelial (HBE) cells; test: Gas-phase NO (gNO) accumulation above control HBE cultures in gas-tight liquid/gas-phase chamber; type: cell-based; details: for gas-phase level of NO: differentiated HBE, IFN-γ
Protocol: (§1) In preliminary studies, attempts were made to measure gNO release from well-differentiated cultures of HBE cells under the conditions described by Suresh et al. (21). Because some difficulties were encountered in obtaining a reproducible, gas-tight seal, both around the holes drilled in the plastic for the fittings and around the lid of the dish using parafilm, the procedure was modified in the following manner. First, 120 ml Teflon® jars (Savillex) were fitted with silicone O-rings to create a leak-proof seal. Two holes were drilled in the lid and fitted with stainless steel luer-lock adapters that were fastened tightly using stainless steel washers and nuts. The luer-lock adapters were fitted with two 3-way plastic stop-cocks to allow connections to be made to the Sievers 270B NO or other analyzers and room or zero air. Manufactured Teflon partition was inserted into the jar to hold the transwells containing cells and to separate the liquid compartment from the headspace.
(§2) For measurement of gNO production by HBE cultures, ALI media was added to each chamber. The apical surface of each culture was washed with 1 ml of PBS for 5 minutes at 37° C. to remove mucus and cell debris. Unless otherwise specified, 50 μl of PBS was added to the apical surface of the culture to provide a thin layer of ASL and allow cilia to beat freely. Three, 12 mm cultures were placed in each chamber, and the chambers were placed in a 37° C./5% CO2 incubator with the lids removed for 5 minutes to allow equilibration with incubator air. The lids were then replaced and tightened with both stop-cocks fully closed. After the appropriate incubation time, the chambers were removed from the incubator and connected to an NO analyzer. The stop-cocks were simultaneously opened to allow room air into the chamber while sample was being withdrawn into the analyzer for measurement. For these studies, NO was measured using a Sievers 280B nitric oxide analyzer with a flow rate of 40 ml/min. For the measurements of gNO production by nasal cultures the flow rate was increased to 500 ml/min. The analyzer was routinely calibrated using NO free air and nitric oxide standards, and zeroed before each experimental run. The level of NO was determined in room air and was usually <5 ppb. The analog output from the NO analyzer was directed into a MACLAB analog-digital converter and computer for data analyses and archiving. All NO measurements are reported as the peak concentration obtained during the sampling period, usually within the first 15 seconds.
(§3) Ciliated cells first become visible ˜14 days after establishment of an air-liquid interface, and the number of ciliated cells continues to increase with time so that by ˜31 days, the cultures typically consist of a multi-layered, pseudo-stratified, heavily ciliated epithelium, as illustrated in FIG. 1B. FIG. 1B is a micrograph 12 of differentiated cultures 14 consisting of a pseudo-stratified epithelium 16 stained with hematoxylin and eosin with abundant ciliated cells at the apical surface 18. To measure gas-phase NO (gNO) production, the apical surface of the cultures were washed, a small volume of PBS (50 ul) was added to wet the surface, and the cultures were incubated overnight (19-20 hours) in a gas-tight, NO inert, cell culture liquid/gas-phase chamber developed for the measurement of gNO (schematically shown in FIG. 2A).

[2] = tested on: CF human bronchial epithelial (HBE) cells; test: Gas-phase NO (gNO) accumulation above CF HBE cultures in gas-tight liquid/gas-phase chamber; type: cell-based
Protocol: as §1, §2
as §3, with “2A). […]” for “2A).”

[3] = tested on: HBE cells; test: Total nitrate/nitrite (NOx) in basal media; type: cell-based, human; details: cultures treated with IFN-γ
Protocol: Measurements of total nitrite/nitrate in apical and basolateral media samples were performed using the Parameter kit (R&D Systems, Minneapolis, Minn.) according to the manufacturer's instructions. Briefly, a 0.5 ml sample of media was obtained from the basolateral chamber at the conclusion of the experiment and frozen at −20° C. until analyzed. Each sample was assayed in duplicate and compared to a standard curve, which was prepared in the same ALI media used to culture the cells.
Nitric oxide present in biological fluids rapidly reacts with other molecules to produce a variety of products. In aqueous solutions, nitrite and nitrate are two of the major metabolites of NO reaction. To determine if the level of NO products in the basal media increased in a similar manner as the levels of gNO, the total amount of nitrate/nitrite (NOx) in a subset of experiments using the Griese reaction was measured. As expected, the level of nitrate/nitrite in the media was higher in cultures treated with IFN-γ than in untreated cultures, averaging 9.3+/−3.1 μM in treated cultures compared to 2.0+/−0.5 μM in untreated cultures (p=0.005; donors=7, 3). The level of NOx in the media increased proportionally to the level of gNO, with a correlation coefficient of 0.74 (y=2.33x+0.28; R^2=0.74), as shown in the chart 92 in FIG. 9. […]

[4] = tested on: iNOS mRNA in cystic fibrosis (CF) HBE cells; test: RT-PCR of iNOS mRNA in CF HBE cultures; type: cell-based, human; details: differentiated CF HBE stimulated with IFN-γ, qualitative RT-PCR
[5] = tested on: iNOS mRNA in control (Normal) HBE cells; test: RT-PCR of NOS isoform RNA in control HBE cultures; type: cell-based, human
Protocol: To examine the effect of an inflammatory cytokine on NO production, well-differentiated cultures of normal HBE cells were treated with different concentrations of interferon-gamma (IFN-γ), a potent inducer of iNOS (7-10). Total RNA was isolated and RT-PCR was used to qualitatively assess the level of the NOS isoforms. […] To examine the effect of IFN-γ on gNO, well-differentiated cultures (mean age 128 days) of control HBE cells were treated with interferon-gamma (IFN-γ) overnight. Treatment with 100 ng/ml of IFN-γ increased the level of accumulated NO>50-fold (see FIG. 5), averaging 576+/−200 ppb (n=22; 8 donors). The IFN-γ induced increase in NO was highly significant (p=6.5×10E-6). Increased levels of iNOS RNA and gNO were observed as early as 6 hours after treatment (data not shown), and levels of NO continued to increase for at least 24 hours.

[6] = undifferentiated control HBE cultures, IFN-γ treatment

Compound | inhibition of gNO production ([1]; control HBE cells, preliminary experiment FIG. 4A, after IFN-γ treatment) | level of gNO ([2]; differentiated CF HBE cultures, IFN-γ 100 ng/ml, 19-20 hours) | level of gNO ([2]; differentiated CF cells stimulated with IFN-γ, submerged with 420 μl PBS) | level of gNO ([2]; differentiated CF cells stimulated with IFN-γ, submersion experiments, not submerged) | ratio of gNO, control cells versus CF cells after IFN-γ treatment ([2]; differentiated cultures treated with IFN-γ) | level of gNO ([2]; undifferentiated CF cells after stimulation with IFN-γ) | level of nitrate/nitrite in the media [3] | NO concentration ([1]; 6 hr incubation with 10 μL INF-γ (100 ng/ml) in HBSS medium, FIG. 4B) | gas-phase level of NO ([1]; 6 hours, 50 μL PBS) | gas-phase level of NO ([1]; 6 hours, submerged with 420 μL PBS) | gas-phase level of NO ([1]; 20 hours, 50 μL PBS) | gas-phase level of NO ([1]; 20 hours, submerged with 420 μL PBS) | fold increase of accumulated gNO over baseline ([1]; differentiated control HBE cultures, 100 ng/ml IFN-γ) | level of accumulated gNO ([1]; differentiated control HBE cultures, 100 ng/ml IFN-γ overnight (19-20 hours), 50 μl PBS apical) | fold increase in gNO [1, 6] | level of gNO [1, 6] | effect on gNO ([1]; undifferentiated cultures, IFN-γ treatment) | iNOS expression [4] | levels of nNOS and eNOS ([5]; control HBE treated with IFN-γ, RT-PCR (not shown)) | level of iNOS RNA / iNOS expression ([5]; differentiated control HBE, increasing concentrations of IFN-γ, qualitative RT-PCR)
COC(=O)[C@@H](N)CCCNC(=N)N[N+](=O)[O-] [L-NAME, reference compound] | inhibited completely |  |  |  |  |  |  |  |  |  |  |  |  |  |  |  |  |  |  | 
interferon gamma [IFN-γ] |  | 192 ppb and 192.3+/−68.9 ppb | 11+/−4.3 ppb | 98+/−35 ppb | 3 fold | 15.6+/−6.8 ppb | 9.3 ± 3.1 µM | marked elevation | 379+/−210 ppb | 6.6+/−5.6 ppb | 1642.5+/−31 ppb | 26.5+/−6.4 ppb | > 50 fold and ~50 fold | 576 ppb and 576+/−200 ppb and > 500 ppb | ~2 fold | 9.5+/−3.3 ppb and ~10 ppb | no significant effect | increase in iNOS expression | relatively unchanged | induced iNOS expression; also recorded: clear increase
